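How tested: cells in 96-well plates exposed to compound for 48 hours at five concentrations. GI50 marks 50% less growth.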 Activity calls are given as the source filed them. Cut-off read from the data, not from the text of the source: active = GI50 up to about 1.1 µM and inactive = higher.
What was measured:
Test in all cases: inhibition of tumour cell growth, NCI panel, 48 h
OVCAR-3 = test system: OVCAR-3
T47D = test system: T47D
PC-3 = test system: PC-3
SF-539 = test system: SF-539
HCT-15 = test system: HCT-15
SK-MEL-2 = test system: SK-MEL-2
786-0 = test system: 786-0
MCF7 = test system: MCF7
SNB-75 = test system: SNB-75
COLO 205 = test system: COLO 205
OVCAR-4 = test system: OVCAR-4
HL-60 = test system: HL-60
HOP-62 = test system: HOP-62
CCRF-CEM = test system: CCRF-CEM
SK-OV-3 = test system: SK-OV-3
K562 = test system: K562
NCI-H23 = test system: NCI-H23
BT-549 = test system: BT-549
UACC-62 = test system: UACC-62
NCI/ADR-RES = test system: NCI/ADR-RES
SF-268 = test system: SF-268
LOX IMVI = test system: LOX IMVI
ACHN = test system: ACHN
OVCAR-8 = test system: OVCAR-8
SNB-19 = test system: SNB-19
HT-29 = test system: HT-29
KM12 = test system: KM12
HCC 2998 = test system: HCC 2998
HOP-92 = test system: HOP-92
SK-MEL-28 = test system: SK-MEL-28
DU-145 = test system: DU-145
NCI-H460 = test system: NCI-H460
SR = test system: SR
NCI-H226 = test system: NCI-H226
OVCAR-5 = test system: OVCAR-5
U-251 = test system: U-251
MDA-MB-435 = test system: MDA-MB-435
A549 = test system: A549
MDA-MB-231 = test system: MDA-MB-231
MOLT-4 = test system: MOLT-4
UO-31 = test system: UO-31
RXF 393 = test system: RXF 393
A498 = test system: A498
UACC-257 = test system: UACC-257
SF-295 = test system: SF-295
TK-10 = test system: TK-10
M14 = test system: M14
CAKI-1 = test system: CAKI-1
SW-620 = test system: SW-620
SN12C = test system: SN12C
EKVX = test system: EKVX
HCT-116 = test system: HCT-116
MDA-N = test system: MDA-N
NCI-H522 = test system: NCI-H522
SK-MEL-5 = test system: SK-MEL-5
RPMI-8226 = test system: RPMI-8226
Malme-3M = test system: Malme-3M
IGROV-1 = test system: IGROV-1
Hs-578T = test system: Hs-578T

Cc1cc(C)c(/C=C2\C(=O)Nc3ccccc32)[nH]1 [SEMAXANIB]
GI50 (OVCAR-3): > 100 µM (inactive) | GI50 (T47D): > 100 µM (inactive) | GI50 (PC-3): > 100 µM (inactive) | GI50 (SF-539): > 100 µM (inactive) | GI50 (HCT-15): 34.8 µM | GI50 (SK-MEL-2): > 75.9 µM (inactive) | GI50 (786-0): > 100 µM (inactive) | GI50 (MCF7): 83.9 µM (inactive) | GI50 (SNB-75): 0.906 µM (active) | GI50 (COLO 205): > 100 µM (inactive) | GI50 (OVCAR-4): 52.5 µM (inactive) | GI50 (HL-60): 7.28 µM (inactive) | GI50 (HOP-62): > 82.2 µM (inactive) | GI50 (CCRF-CEM): > 100 µM (inactive) | GI50 (SK-OV-3): > 66.7 µM (inactive) | GI50 (K562): > 100 µM (inactive) | GI50 (NCI-H23): 7.96 µM (inactive) | GI50 (BT-549): > 100 µM (inactive) | GI50 (UACC-62): > 100 µM (inactive) | GI50 (NCI/ADR-RES): > 100 µM (inactive) | GI50 (SF-268): > 100 µM (inactive) | GI50 (LOX IMVI): > 100 µM (inactive) | GI50 (ACHN): 66.2 µM (inactive) | GI50 (OVCAR-8): > 49.5 µM (inactive) | GI50 (SNB-19): > 100 µM (inactive) | GI50 (HT-29): 35.6 µM (inactive) | GI50 (KM12): 0.998 µM (active) | GI50 (HCC 2998): 38.8 µM (inactive) | GI50 (HOP-92): 48.3 µM (inactive) | GI50 (SK-MEL-28): > 100 µM (inactive) | GI50 (DU-145): > 83 µM (inactive) | GI50 (NCI-H460): > 57.8 µM (inactive) | GI50 (SR): 17.9 µM (inactive) | GI50 (NCI-H226): 1.22 µM (inactive) | GI50 (OVCAR-5): > 69 µM (inactive) | GI50 (U-251): > 100 µM (inactive) | GI50 (MDA-MB-435): > 96.4 µM (inactive) | GI50 (A549): > 65.3 µM (inactive) | GI50 (MDA-MB-231): > 62.1 µM (inactive) | GI50 (MOLT-4): > 78.2 µM (inactive) | GI50 (UO-31): 34.5 µM (inactive) | GI50 (RXF 393): > 100 µM (inactive) | GI50 (A498): > 100 µM (inactive) | GI50 (UACC-257): > 100 µM (inactive) | GI50 (SF-295): > 100 µM (inactive) | GI50 (TK-10): > 100 µM (inactive) | GI50 (M14): 69 µM (inactive) | GI50 (CAKI-1): > 59.2 µM (inactive) | GI50 (SW-620): > 87.7 µM (inactive) | GI50 (SN12C): > 100 µM (inactive) | GI50 (EKVX): 2.81 µM (inactive) | GI50 (HCT-116): 72.9 µM (inactive) | GI50 (MDA-N): > 95.9 µM (inactive) | GI50 (NCI-H522): > 49.9 µM (inactive) | GI50 (SK-MEL-5): > 90.8 µM (inactive) | GI50 (RPMI-8226): > 100 µM (inactive) | GI50 (Malme-3M): > 58.5 µM (inactive)

CCOP(=O)(OCC)C(Nc1ccc(C(=O)O)cc1)c1ccc(C(Nc2ccc(C(=O)O)cc2)P(=O)(OCC)OCC)cc1 (stereo not given)
GI50 (OVCAR-3): > 100 µM (inactive) | GI50 (T47D): > 100 µM (inactive) | GI50 (PC-3): > 100 µM (inactive) | GI50 (HCT-15): > 100 µM | GI50 (SK-MEL-2): > 100 µM (inactive) | GI50 (786-0): > 100 µM (inactive) | GI50 (IGROV-1): > 100 µM (inactive) | GI50 (SNB-75): > 100 µM (inactive) | GI50 (COLO 205): > 100 µM (inactive) | GI50 (OVCAR-4): > 100 µM (inactive) | GI50 (HOP-62): > 100 µM (inactive) | GI50 (CCRF-CEM): > 100 µM (inactive) | GI50 (SK-OV-3): > 100 µM (inactive) | GI50 (K562): > 100 µM (inactive) | GI50 (NCI-H23): > 100 µM (inactive) | GI50 (BT-549): > 100 µM (inactive) | GI50 (UACC-62): > 100 µM (inactive) | GI50 (NCI/ADR-RES): > 100 µM (inactive) | GI50 (SF-268): > 100 µM (inactive) | GI50 (LOX IMVI): > 100 µM (inactive) | GI50 (ACHN): > 100 µM (inactive) | GI50 (OVCAR-8): > 100 µM (inactive) | GI50 (SNB-19): > 100 µM (inactive) | GI50 (HT-29): > 100 µM (inactive) | GI50 (KM12): > 100 µM (inactive) | GI50 (HCC 2998): > 100 µM (inactive) | GI50 (HOP-92): > 100 µM (inactive) | GI50 (SK-MEL-28): > 100 µM (inactive) | GI50 (DU-145): > 100 µM (inactive) | GI50 (NCI-H460): > 100 µM (inactive) | GI50 (NCI-H226): > 100 µM (inactive) | GI50 (OVCAR-5): > 100 µM (inactive) | GI50 (U-251): > 100 µM (inactive) | GI50 (MDA-MB-435): > 100 µM (inactive) | GI50 (A549): > 100 µM (inactive) | GI50 (MDA-MB-231): > 100 µM (inactive) | GI50 (MOLT-4): > 100 µM (inactive) | GI50 (UO-31): > 100 µM (inactive) | GI50 (Hs-578T): > 100 µM (inactive) | GI50 (RXF 393): > 100 µM (inactive) | GI50 (A498): > 100 µM (inactive) | GI50 (UACC-257): > 100 µM (inactive) | GI50 (SF-295): > 100 µM (inactive) | GI50 (TK-10): > 100 µM (inactive) | GI50 (M14): > 100 µM (inactive) | GI50 (CAKI-1): > 100 µM (inactive) | GI50 (SW-620): > 100 µM (inactive) | GI50 (EKVX): > 100 µM (inactive) | GI50 (HCT-116): > 100 µM (inactive) | GI50 (NCI-H522): > 100 µM (inactive) | GI50 (SK-MEL-5): > 100 µM (inactive) | GI50 (RPMI-8226): > 100 µM (inactive) | GI50 (Malme-3M): > 100 µM (inactive)

— ChEMBL document CHEMBL1201862, “PubChem BioAssay data set” (2004)
